Paper PMC8557888, “Intracellular Accumulation of Novel and Clinically Used TB Drugs Potentiates Intracellular Synergy” (Microbiology Spectrum, 2021)
“And” between values parts separate entries of the source, which are not always exact repeats. Equal entries are not always repeated. Where two headings read alike, the source gives them in different places.

How the values were obtained:
THP-1 cells [1] = experiment: Intracellular accumulation in uninfected THP-1 cells (LC-MS/MS); details: 5 μg/ml of each compound, 48 h
in vitro = details: human
THP-1 cells [2] = details: human, 5 μg/ml
[3] = male, C57BL/6, mouse, in vivo, po, 10 mg/kg
M. tuberculosis H37Rv [4] = experiment: Intracellular efficacy (CFU plating) in M. tuberculosis-infected THP-1 cells; type: cell-based, Mycobacterium tuberculosis; details: M. tuberculosis H37Rv-infected THP-1 cells, 20× MIC, 96-h assay; for decrease in bacterial count from starting count: given as size of decrease; for change in bacterial count compared to starting bacterial count: signed value
M. smegmatis = type: cell-based, Mycobacterium smegmatis
[5] = system: M. smegmatis-infected THP-1 cells
[6] = THP-1 cell viability during accumulation experiment (trypan blue); details: human
M. tuberculosis H37Rv [7] = details: cited from earlier work
M. tuberculosis = experiment: Two-dimensional checkerboard synergy assay; type: cell-based, Mycobacterium tuberculosis; details: PhX1/WHN296 combination
[8] = PhX1 concentrations in murine plasma, epithelial lining fluid and alveolar macrophages (BAL procedure, LC-MS/MS); details: mice; for Kp / AUC / Cmax: male, C57BL/6, mouse, in vivo, 10 mg/kg; for AUC: 24 h
[9] = system: M. tuberculosis-infected THP-1 cells; details: 20× MIC
Description: An intracellular accumulation ratio, defined as the intracellular compound concentration divided by the extracellular concentration, was used in this study to allow comparison between compounds (Fig. 5B).
The intracellular accumulation of the combination of PhX1 and WHN296 in the M. tuberculosis-infected THP-1 cell model was evaluated using quantitative LC-MS/MS at time points of 24, 48, 72, and 96 h (n = 3 for each time point). In this experiment, intracellular drug concentrations are reported in ng/ml to allow comparisons to be made with the minimum compound levels required to achieve synergy.
THP-1 cells were grown in RPMI medium containing 10% FCS at 37°C in 5% CO2. Cells were seeded and differentiated according to the above protocol for 24 h using PMA. M. tuberculosis (H37RvMa) cells were grown to mid-log phase in 7H9 medium. THP-1 cells were infected at an MOI of 5. Following 3 h of infection, wells were washed with RPMI medium to remove extracellular bacteria and dead cells. RPMI medium containing a predetermined concentration of compound was added to each well in triplicate. The solution was allowed to equilibrate for 30 min. In addition, three wells were left without drug treatment (following M. tuberculosis infection) and served as untreated controls, while an additional three wells of THP-1 cells were left uninfected and were used as uninfected controls. Thereafter, at each time point, cells were washed with RPMI medium. This was followed by the addition of EDTA (5 mM), after which 5 min was allowed for the cells to detach. Trypan blue-stained cells were counted using the automated cell counter. The remaining supernatant (150 μl) was added directly to an Eppendorf tube containing chloroform/methanol (3:1, vol/vol) and 1 μg/ml of compound-specific internal standard (deuterated internal standard for known anti-TB compounds and carbamazepine for novel compounds). […] Samples were processed using quantitative LC-MS/MS assays. […] These were then used to construct calibration curves, which were subsequently used to quantitate the amount of analyte in each respective sample.

[10] = cited from earlier work
[11] = cited from earlier work; remark: listed apart in the source

With `O=C(NN=C(c1ccccn1)c1ccccn1)c1ccncc1` [DPINH] as the compound, how does the “Equilibrium level reached (intracellular concentration)” value (shortened to “Equilibrium level reached”) (THP-1 cells [1]) read?
The value was 1,280 ± 113.1 ng/ml.

What does the source list for `C[C@H]1COc2c(N3CCN(C)CC3)c(F)cc3c(=O)c(C(=O)O)cn1c23` [Levofloxacin, levofloxacin]?
viability at 48 h, 5 μg/ml (in vitro): 95 ± 4.2%; Equilibrium level reached (intracellular concentration) (THP-1 cells [2]; 48 h): 860 ± 56.5 ng/mL

Which results are given for `CCN(CC)c1ccc2nc3c4ccccc4/c(=N\c4ccccc4)cc-3oc2c1` [PhX1]?
time plasma concentration above M. tuberculosis MIC90 [3]: approximately 6 h; Equilibrium level reached (intracellular concentration) (THP-1 cells [1]): 4,750 ± 127.2 ng/ml; decrease in bacterial count from starting count (M. tuberculosis H37Rv [4]): 0.8 log10CFU/ml; change in bacterial count compared to starting bacterial count (M. tuberculosis H37Rv [4]): −0.8 log10CFU/ml; change in M. smegmatis-associated green fluorescence (M. smegmatis): no significant change; intracellular accumulation compared among phenoxazines [5]: significantly higher than those of the majority of the other phenoxazines; time to steady state of accumulation ([5]; human): 2 h; viability at 48 h, 5 μg/ml [6]: 92 ± 5.8%; MIC90 (M. tuberculosis H37Rv [7]; M. tuberculosis H37Rv in vitro): 0.19 µM and 0.194 µM; increase in efficacy against in vitro M. tuberculosis over PhX6 (M. tuberculosis H37Rv [7]; PhX1 vs PhX6): 2 fold; MIC90 (M. tuberculosis H37Rv [7]; line printed in Fig 2): 0.089 µg/mL; minimum value required to produce synergy (2D-synergy level) (M. tuberculosis): 153.1 ng/mL; Kp ([8]; ELFAUC/plasmaAUC): 1.7; AUC ([8]; po, AUC in epithelial lining fluid cells (alveolar macrophages), 10 mg/kg oral, ELF cells): 5020 ng·h/mL; AUC ([8]; po, AUC in epithelial lining fluid, 10 mg/kg oral, ELF): 2090 ng·h/mL; AUC ([8]; po, AUC in plasma, 10 mg/kg oral, plasma): 1170 ng·h/mL; Cmax ([8]; po, Cmax in epithelial lining fluid cells (alveolar macrophages), 10 mg/kg oral, ELF cells): 895 ± 23 ng/mL; Cmax ([8]; po, Cmax in epithelial lining fluid, 10 mg/kg oral, ELF): 452 ± 22 ng/mL; Cmax ([8]; po, Cmax in plasma, 10 mg/kg oral, plasma): 200 ± 75 ng/mL; Kp ([8]; po, ELF AUC relative to plasma, 10 mg/kg oral): ~2; Kp ([8]; po, ELF cell AUC relative to plasma, 10 mg/kg oral): ~4; ELF cell AUC relative to epithelial lining fluid ([8]; 10 mg/kg oral): 2 fold; time above MIC90 in epithelial lining fluid ([8]; 10 mg/kg oral, ELF): 8 h; log ratio of epithelial lining fluid to plasma concentration ([8]; single-point values such as Cmax): 0.65

With `CCN(CC)c1ccc2nc3c4ccccc4c(=Nc4ccccn4)cc-3oc2c1` [PhX6] as the compound, how does the “intracellular accumulation compared among phenoxazines” value [5] read?
The value was “only compound accumulating to higher levels”.

Which “intracellular accumulation ratio (intracellular/extracellular concentration)” value [9] does the source give for `CCCCCCCCCCOc1cc2c(=O)c(C(=O)NCCOCCO)cn(CC)c2cc1OCC` [RMB041] here?
Its value is 0.25.

What about the “decrease in bacterial count from starting count” value (“decrease in bacterial count” below) (M. tuberculosis H37Rv [4]) of the same compound?
Its value is 0.1 log10CFU/ml.

What about the viability at 48 h, 5 μg/ml (in vitro) of the same compound?
The viability at 48 h, 5 μg/ml was 97 ± 2.5%.

And the MIC90 (M. tuberculosis H37Rv [7]; M. tuberculosis H37Rv in vitro)?
Its MIC90 is 1.61 µM.

What about the “Equilibrium level reached” value (THP-1 cells [2]; 48 h) of the same compound?
Its value is 953.5 ± 28.2 ng/mL.

What does the source list for `CC(C)=CCC/C(C)=C/CN1CCN([C@@H]2O[C@@H]3O[C@@]4(C)CC[C@H]5[C@H](C)CC[C@@H]([C@H]2C)[C@@]35OO4)CC1` [WHN296]?
viability at 48 h, 5 μg/ml (in vitro): 98 ± 1.2%; MIC90 (M. tuberculosis H37Rv [7]; M. tuberculosis H37Rv in vitro): 18 µM; Equilibrium level reached (intracellular concentration) (THP-1 cells [2]; 48 h): 613.5 ± 19.2 ng/mL

For `COc1nc2ccc(Br)cc2cc1[C@@H](c1ccccc1)[C@@](O)(CCN(C)C)c1cccc2ccccc12` [bedaquiline], which “intracellular accumulation ratio (intracellular/extracellular concentration)” value [9] is on record?
Its value is 5.5.

And the “decrease in bacterial count” value (M. tuberculosis H37Rv [4])?
The value was 1.5 log10CFU/ml.

What about the “change in bacterial count compared to starting bacterial count” value (M. tuberculosis H37Rv [4]) of the same compound?
The value was −1.5 log10CFU/ml.

What about the viability at 48 h, 5 μg/ml (in vitro) of the same compound?
Its viability at 48 h, 5 μg/ml is 93 ± 4.9%.

What about the “time to reach equilibrium level / steady state” value (THP-1 cells [2]) of the same compound?
Its value is ≤ 30 min.

What about the “Equilibrium level reached” value (THP-1 cells [2]; 48 h) of the same compound?
Its value is 4,410 ± 190.9 ng/ml.

And the “equilibrium level (intracellular)” value (THP-1 cells [2]; 48 h)?
Its value is “greater than 4 μg/ml”.

For `CCc1cc(C(N)=S)ccn1` [ethionamide], which “log ratio ELF/plasma” value ([10]; in vivo) is on record?
The value was 2.8.

With `NNC(=O)c1ccncc1` [isoniazid] as the compound, how does the “log ratio ELF/plasma” value ([10]; in vivo) read?
The value was 1.

What does the source list for `CC(=O)NC[C@H]1CN(c2ccc(N3CCOCC3)c(F)c2)C(=O)O1` [linezolid]?
log ratio ELF/plasma [10]: 0.7; viability at 48 h, 5 μg/ml (in vitro): 92 ± 3.1%; time to reach equilibrium level / steady state (THP-1 cells [2]): ≤ 15 min; Equilibrium level reached (intracellular concentration) (THP-1 cells [2]; 48 h): 770 ± 14.1 ng/mL

Which results are given for `COc1c(N2C[C@@H]3CCCN[C@@H]3C2)c(F)cc2c(=O)c(C(=O)O)cn(C3CC3)c12` [moxifloxacin]?
intracellular accumulation ratio (intracellular/extracellular concentration) [9]: 5.4; decrease in bacterial count from starting count (M. tuberculosis H37Rv [4]): approximately 0.5 log10CFU/ml; change in bacterial count compared to starting bacterial count (M. tuberculosis H37Rv [4]): −0.5 log10CFU/ml; Cmax in epithelial lining fluid ([11]; human, in vivo): approximately 10 μg/ml; plasma Cmax ([11]; human, in vivo): approximately 4 μg/ml; concentration in plasma at the 24-h time point ([11]; once-off 400 mg oral dose, healthy volunteers): 5000 ng/mL; log ratio ELF/plasma [10]: 1.5; viability at 48 h, 5 μg/ml (in vitro): 87 ± 2.7%; Equilibrium level reached (intracellular concentration) (THP-1 cells [2]; 48 h): 3,374 ± 48.7 ng/ml

With `NC(=O)c1cnccn1` [pyrazinamide] as the compound, how does the “log ratio ELF/plasma” value ([10]; in vivo) read?
The value was 3.2.

For `CO[C@H]1/C=C/O[C@@]2(C)Oc3c(C)c(O)c4c(O)c(c(/C=N/N5CCN(C)CC5)c(O)c4c3C2=O)NC(=O)/C(C)=C\C=C\[C@H](C)[C@H](O)[C@@H](C)[C@@H](O)[C@@H](C)[C@H](OC(C)=O)[C@@H]1C` [rifampin], which “decrease in bacterial count” value (M. tuberculosis H37Rv [4]) is on record?
The value was “approximately 1.5 log10CFU/ml”.

And the “change in bacterial count compared to starting bacterial count” value (M. tuberculosis H37Rv [4])?
Its value is −1.5 log10CFU/ml.

What about the “maximum concentration in epithelial lining fluid” value ([11]; human, in vivo) of the same compound?
Its value is “approximately 2 μg/ml”.

And the “log ratio ELF/plasma” value ([10]; in vivo)?
Its value is 0.7.

And the viability at 48 h, 5 μg/ml (in vitro)?
The viability at 48 h, 5 μg/ml was 89 ± 2.4%.

What about the “Equilibrium level reached” value (THP-1 cells [2]; 48 h) of the same compound?
Its value is 3,050 ± 62.9 ng/ml.
